Results on 1 molecule are retold here after patent US20250228772A1, “DRUG DELIVERY SYSTEM COMPRISING A REFLUX INHIBITOR FOR THE APPLICATION TO ESOPHAGEAL MUCOUS MEMBRANES” (EsoCap AG, priority 2022, published 2025).

For series [1], the system named is transient lower esophageal sphincter relaxations. The following applies: after systemic administration (Lidums 2000); cited from earlier work.
For series [2] the following is noted: oral administration, clinical use, 15 to 75 mg per day; cited from earlier work.
For series [3], the system named is reflux episodes and transient lower esophageal sphincter relaxations. The conditions noted are these: meta-analysis of nine clinical studies; cited from earlier work.
Series [4] can be described thus: UV/Vis spectroscopy of film samples against a reference sample. The following applies: PVA 18-88/glycerol film, FSG medium pH 1.2, spectrum compared with a reference sample. It counts as physicochemical. The protocol: Further, the film was analyzed for the content of Baclofen. To this end, 6 circular samples with a diameter of 1.9 cm (2.84 cm^2) were cut at random positions of the film and analyzed with a UV/Vis spectroscopy in FSG medium, pH 1.2. The absorption spectrum is shown in FIG. 10 in comparison to a reference sample comprising Baclofen solved in FSG medium, pH 1.2.

In the case of `NCC(CC(=O)O)c1ccc(Cl)cc1` (stereo not drawn) [Baclofen, 4-Amino-3-(4-chlorphenyl) butyric acid], the “transient lower esophageal sphincter relaxations” value in series [1] is on record as “control transient lower esophageal sphincter relaxations”. Besides, in series [2], the “tolerability / side effects” value is “poor tolerability due to severe side effects”. In addition, in series [3], the “incidence of transient lower esophageal sphincter relaxations” value is given as “decreased”, the “length of reflux episodes” value was “decreased” and the “number of reflux episodes” value is “decreased”. Also, the “stability of Baclofen in the polymer film” value in series [4] is listed as “can be stably prepared in a film”.
